Experiments:
[1] = tested on: K562 (chronic myelogenous leukemia); experiment: Effect on tumor cell lines (Latham assay), K562; type: cell-based; settings: Homo sapiens; K562 cells, examined 96 hours after treatment; read-out: Potencies (IC50) K 562
Description: (§1) The plated cells were treated 24 hours later with a compound of the invention dissolved in DMSO at multiple concentrations ranging from 0.01 μM to 100 μM. […] When necessary, the total number of viable cells was determined by trypsinizing the wells and counting the number of viable cells, as determined by trypan blue exclusion, using a hemacytometer.

DU145 (prostate cancer) = experiment: Effect on tumor cell lines (Latham assay), DU145; type: cell-based; settings: Homo sapiens, DU-145; DU145 cells, examined 96 hours after treatment; read-out: Potencies (IC50) DU 145
Description: as §1

Compound	IC50 [1] [µM]	IC50 (DU145 (prostate cancer)) [µM]	melting point [°C]
Cn1c(=O)c(S(=O)(=O)c2ccc(F)c(Cl)c2)cc2cnc(Nc3cccc4[nH]ccc34)nc21 [Example 34, 2-(1H-indol-4-ylamino)-6-(3-chloro-4-fluorophenylsulfonyl)-8-methylpyrido[2,3-d]pyrimidin-7(8H)-one]	50 to 100	50 to 100	315 to 320
Cn1c(=O)c(S(=O)(=O)c2ccccc2)cc2cnc(Nc3ccc4ncccc4c3)nc21 [Example 23, 8-methyl-6-(phenylsulfonyl)-2-(quinolin-6-ylamino)pyrido[2,3-d]pyrimidin-7(8H)-one]	> 100	50 to 100	348 to 350
CCCn1c(=O)c(S(=O)(=O)c2ccccc2)cc2cnc(Nc3ccc4[nH]ccc4c3)nc21 [Example 47, 2-(1H-indol-5-ylamino)-6-(phenylsulfonyl)-8-propylpyrido[2,3-d]pyrimidin-7(8H)-one]	< 1	1 to 10	293 to 295
Cc1ccc(S(=O)(=O)c2cc3cnc(Nc4cnc5[nH]ccc5c4)nc3n(C)c2=O)cc1 [Example 19, 2-(1H-pyrrolo[2,3-b]pyridin-5-ylamino)-8-methyl-6-tosylpyrido[2,3-d]pyrimidin-7(8H)-one]	1 to 10	1 to 10	252 to 255
Cn1c(=O)c(S(=O)(=O)c2ccc(Cl)cc2)cc2cnc(Nc3cnc4ccccc4c3)nc21 [Example 5, 6-(4-chlorophenylsulfonyl)-8-methyl-2-(quinolin-3-ylamino)pyrido[2,3-d]pyrimidin-7(8H)-one]	10 to 25	10 to 25	304 to 306
COc1ccc(S(=O)(=O)c2cc3cnc(Nc4ccc5[nH]ccc5c4)nc3n(C)c2=O)cc1 [Example 29, 2-(1H-indol-5-ylamino)-6-(4-methoxyphenylsulfonyl)-8-methylpyrido[2,3-d]pyrimidin-7(8H)-one]	< 1	< 1	260 to 262
Cn1c(=O)c(S(=O)(=O)c2ccc(F)c(Cl)c2)cc2cnc(Nc3cnc4[nH]ccc4c3)nc21 [Example 35, 2-(1H-pyrrolo[2,3-b]pyridin-5-ylamino)-6-(3-chloro-4-fluorophenylsulfonyl)-8-methylpyrido[2,3-d]pyrimidin-7(8H)-one]	< 1	< 1	320 to 325
O=c1c(S(=O)(=O)c2ccccc2)cc2cnc(N3CCN(c4ccc(C(F)(F)F)cn4)CC3)nc2n1C1CCCC1 [Example 57, 8-cyclopentyl-2-(4-(5-(trifluoromethyl)pyridin-2-yl)piperazin-1-yl)-6-(phenylsulfonyl)pyrido[2,3-d]pyrimidin-7(8H)-one]	50 to 100	25 to 50	258 to 259
Cn1c(=O)c(S(=O)(=O)c2ccc(F)c(Cl)c2)cc2cnc(Nc3ccc4[nH]ccc4c3)nc21 [Example 33, 2-(1H-indol-5-ylamino)-6-(3-chloro-4-fluorophenylsulfonyl)-8-methylpyrido[2,3-d]pyrimidin-7(8H)-one]	< 1	1 to 10	250 to 255
COc1ccc(Nc2ncc3cc(S(=O)(=O)c4ccc(Cl)cc4)c(=O)n(C)c3n2)cc1 [Example 4, 6-(4-chlorophenylsulfonyl)-2-(4-methoxyphenylamino)-8-methylpyrido[2,3-d]pyrimidin-7(8H)-one]	10 to 25	25 to 50	286 to 290
Cn1c(=O)c(S(=O)(=O)c2ccc(F)cc2)cc2cnc(Nc3ccc4cc[nH]c4c3)nc21 [Example 24, 2-(1H-indol-6-ylamino)-6-(4-fluorophenylsulfonyl)-8-methylpyrido[2,3-d]pyrimidin-7(8H)-one]	25 to 50	25 to 50	> 350

From US8889696B2, “Substituted pyrido[2,3-d]pyrimidin-7(8H)-ones and therapeutic uses thereof” (Temple University—Of The Commonwealth System Of Higher …, priority 2009, dated 2014)
